# Reference: patent US20250195483A1, “SPIRO PIPERIDINE DERIVATIVES AS INHIBITORS OF APOL1 AND METHODS OF USING SAME” (Vertex Pharmaceuticals Incorporated, priority 2022, published 2025)
# Biological target: T1, APOL1 (Homo sapiens, UniProt O14791)
# T1 sequence (O14791 1-398): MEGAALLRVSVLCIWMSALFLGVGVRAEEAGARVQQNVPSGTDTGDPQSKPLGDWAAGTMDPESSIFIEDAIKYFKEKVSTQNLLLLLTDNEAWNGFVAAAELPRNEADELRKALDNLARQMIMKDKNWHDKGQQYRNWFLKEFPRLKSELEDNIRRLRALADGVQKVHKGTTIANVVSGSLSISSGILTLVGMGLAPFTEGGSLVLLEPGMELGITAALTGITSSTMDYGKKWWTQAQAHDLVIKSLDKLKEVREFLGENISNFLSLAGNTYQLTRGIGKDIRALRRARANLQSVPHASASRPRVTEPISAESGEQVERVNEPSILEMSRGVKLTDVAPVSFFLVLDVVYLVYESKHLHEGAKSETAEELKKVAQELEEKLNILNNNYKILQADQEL
# Experiment: MultiTox-Fluor Multiplex Cytotoxicity Assay, tet-inducible APOL1 T-REx-HEK293 cells (G0, G1 or G2 clone not specified for Table 20)
# Type: cell-based
# Details: tet-induced, 24 hours with compound, ratio of dead to live cells, read-out: IP50 (i.e., IC50 for cell proliferation)
# Outline: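 HEK293 T-REx cells with tet-inducible APOL1 G0, G1 or G2 clone, 23,400/well, treated with tetracycline plus compound (top 10 μM, 10-point 3-fold, duplicate) for 24 h at 37° C. MultiTox-Fluor dead/live fluorescence ratio, normalized to no-tet (100% viability) and 50 ng/mL tet (0% viability) controls, then curve-fitted.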
smiles,measurement,value
CS(=O)(=O)CCn1cc(CN2CCC3(CC2)C(=O)N(CC(F)(F)F)c2ccc(Cl)cc23)cn1 [Compound 50],IC50,50 to 500 nM
C[C@H]1C[C@@]2(CCN1Cc1cn(CCc3nccc(=O)[nH]3)nn1)OCCc1ccc(Cl)cc12 [Compound 183],IC50,50 to 500 nM
CS(=O)(=O)CCn1cc(CN2CCC3(CC2)OCCc2ccc(Cl)cc23)nn1 [Compound 129],IC50,≥ 500 nM
CCNC(=O)NCCn1cc(CN2CC[C@]3(C[C@@H]2C)OCCc2ccc(Cl)cc23)nn1 [Compound 173],IC50,≤ 50 nM
CS(=O)(=O)CCn1cc(CN2CCC3(CC2)C(=O)Nc2ccc(Br)cc23)cn1 [Compound 22],IC50,50 to 500 nM
CN(C)c1ncc(CN2CCC3(CC2)C(=O)Nc2ccc(Cl)cc23)cn1 [Compound 9],IC50,50 to 500 nM
CCc1ccc2c(c1)C1(CCN(Cc3cnn(CCS(C)(=O)=O)c3)CC1)C(=O)N2C [Compound 84],IC50,≥ 500 nM
Cc1nc(Cn2cc(CN3CC[C@]4(C[C@@H]3C)OCCc3ccc(Cl)cc34)nn2)sc1C(N)=O [Compound 165],IC50,≤ 50 nM
Cc1ccc(NCCn2cc(CN3CC[C@]4(C[C@@H]3C)OCCc3ccc(Cl)cc34)nn2)nn1 [Compound 159],IC50,50 to 500 nM
"CNC(=O)C1OC2(CCN(Cc3cnn(-c4ccccc4)c3)[C@@H](C)C2)c2cc(Cl)ccc21 (single isomer, unassigned) [Compound 294, (2′S)-5-chloro-N,2′-dimethyl-1′-[(1-phenylpyrazol-4-yl)methyl]spiro[1H-isobenzofuran-3,4′-piperidine]-1-carboxamide]",IC50,≥ 500 nM
CS(=O)(=O)CCn1cc(CN2CCC3(CC2)C(=O)Nc2ccc(C(F)C(F)F)cc23)cn1 (centres unmarked) [Compound 32],IC50,≥ 500 nM
C[C@H]1C[C@@]2(CCN1Cc1cn(Cc3cnn4c3C(=O)N(C)CC4)nn1)OCCc1ccc(Cl)cc12 [Compound 166],IC50,50 to 500 nM
C[C@H]1C[C@@]2(CCN1Cc1cn(Cc3ccc(C(N)=O)o3)nn1)OCCc1ccc(Cl)cc12 [Compound 172],IC50,≤ 50 nM
"CN1C(=O)C2(CCN(Cc3cnn(CCS(C)(=O)=O)c3)CC2)c2cc(Cl)ccc21 [Compound 37, 5-chloro-1-methyl-1′-[[1-(2-methylsulfonylethyl)pyrazol-4-yl]methyl]spiro[indoline-3,4′-piperidine]-2-one]",IC50,50 to 500 nM
Cc1ccc2c(c1)C1(CCN(Cc3cnn(CCO)c3)[C@@H](C)C1)OCC2 (some centres unmarked) [Compound 98],IC50,≤ 50 nM
"CNC(=O)C1OC2(CCN(Cc3cnn(-c4ccccc4)c3C)CC2)c2cc(Cl)ccc21 (centres unmarked) [Compound 299, 6-chloro-N-methyl-1′-((5-methyl-1-phenyl-1H-pyrazol-4-yl)methyl)-3H-spiro[isobenzofuran-1,4′-piperidine]-3-carboxamide]",IC50,≥ 500 nM
C[C@H]1C[C@@]2(CCN1Cc1cnn(C3CCS(=O)(=O)C3)c1)OCCc1ccc(Cl)cc12 (some centres unmarked) [Compound 116],IC50,≤ 50 nM
NC(=O)C1OC2(CCN(Cc3cnn(C4CCOCC4)c3)CC2)c2cc(Cl)ccc21 (centres unmarked) [Compound 235],IC50,≤ 50 nM
Cc1nc(C)c(CN2CCC3(CC2)OC(C(N)=O)c2ccc(Cl)cc23)o1 (centres unmarked) [Compound 276],IC50,≥ 500 nM
Cc1cc(CN2CCC3(CC2)OC(C(N)=O)c2ccc(Cl)cc23)nn1C (centres unmarked) [Compound 247],IC50,≥ 500 nM
C[C@H]1C[C@@]2(CCN1Cc1cn(CC(=O)NCC3(C#N)CC3)nn1)OCCc1ccc(Cl)cc12 [Compound 171],IC50,≤ 50 nM
NC(=O)C1OC2(CCN(Cc3cnn(C[C@@H](O)CO)c3)CC2)c2cc(Cl)ccc21 (some centres unmarked) [Compound 283],IC50,50 to 500 nM
CNC(=O)C1OC2(CCN(Cc3cnn(-c4cccnc4)c3)CC2)c2cc(Cl)ccc21 (centres unmarked) [Compound 202],IC50,≤ 50 nM
C[C@H]1C[C@@]2(CCN1Cc1cn(CC(C)(C)NS(C)(=O)=O)nn1)OCCc1ccc(Cl)cc12 [Compound 167],IC50,≤ 50 nM
"CNC(=O)C1OC2(CCN(Cc3cnn(-c4ccccc4)c3)CC2)c2cc(C#N)ccc21 (centres unmarked) [Compound 204, 5-cyano-N-methyl-1′-[(1-phenylpyrazol-4-yl)methyl]spiro[1H-isobenzofuran-3,4′-piperidine]-1-carboxamide]",IC50,50 to 500 nM
CS(=O)(=O)CCn1cc(CN2CCC3(CC2)C(=O)Nc2ccc(CC(F)F)cc23)cn1 [Compound 31],IC50,≥ 500 nM
Cc1cc(CN2CCC3(CC2)OC(C(N)=O)c2ccc(Cl)cc23)no1 (centres unmarked) [Compound 265],IC50,≥ 500 nM
NC(=O)c1cccc(CN2CCC3(CC2)OC(C(N)=O)c2ccc(Cl)cc23)c1F (centres unmarked) [Compound 240],IC50,≥ 500 nM
O=C1Nc2ccc(Cl)cc2C12CCN(Cc1cnn(CCO)c1)CC2 [Compound 4],IC50,≥ 500 nM
